The values below come from patent US20220202824A1, “Methods for Treating Centronuclear Myopathy” (Stemline Therapeutics, Inc., priority 2018, published 2022).

A word on the IC50: it is the point on the concentration scale where inhibition reaches its midpoint. By inhibition is commonly meant the change of the read-out against control, counted positive when it falls.

Where two headings read alike, the source gives them in different places.

Assay [1] deals with PIK3C2B (Homo sapiens, UniProt O00750). The following applies: cited from earlier work; for IC50: read-out: IC50 for PIK3C2B.
Chain of PIK3C2B (O00750 whole entry): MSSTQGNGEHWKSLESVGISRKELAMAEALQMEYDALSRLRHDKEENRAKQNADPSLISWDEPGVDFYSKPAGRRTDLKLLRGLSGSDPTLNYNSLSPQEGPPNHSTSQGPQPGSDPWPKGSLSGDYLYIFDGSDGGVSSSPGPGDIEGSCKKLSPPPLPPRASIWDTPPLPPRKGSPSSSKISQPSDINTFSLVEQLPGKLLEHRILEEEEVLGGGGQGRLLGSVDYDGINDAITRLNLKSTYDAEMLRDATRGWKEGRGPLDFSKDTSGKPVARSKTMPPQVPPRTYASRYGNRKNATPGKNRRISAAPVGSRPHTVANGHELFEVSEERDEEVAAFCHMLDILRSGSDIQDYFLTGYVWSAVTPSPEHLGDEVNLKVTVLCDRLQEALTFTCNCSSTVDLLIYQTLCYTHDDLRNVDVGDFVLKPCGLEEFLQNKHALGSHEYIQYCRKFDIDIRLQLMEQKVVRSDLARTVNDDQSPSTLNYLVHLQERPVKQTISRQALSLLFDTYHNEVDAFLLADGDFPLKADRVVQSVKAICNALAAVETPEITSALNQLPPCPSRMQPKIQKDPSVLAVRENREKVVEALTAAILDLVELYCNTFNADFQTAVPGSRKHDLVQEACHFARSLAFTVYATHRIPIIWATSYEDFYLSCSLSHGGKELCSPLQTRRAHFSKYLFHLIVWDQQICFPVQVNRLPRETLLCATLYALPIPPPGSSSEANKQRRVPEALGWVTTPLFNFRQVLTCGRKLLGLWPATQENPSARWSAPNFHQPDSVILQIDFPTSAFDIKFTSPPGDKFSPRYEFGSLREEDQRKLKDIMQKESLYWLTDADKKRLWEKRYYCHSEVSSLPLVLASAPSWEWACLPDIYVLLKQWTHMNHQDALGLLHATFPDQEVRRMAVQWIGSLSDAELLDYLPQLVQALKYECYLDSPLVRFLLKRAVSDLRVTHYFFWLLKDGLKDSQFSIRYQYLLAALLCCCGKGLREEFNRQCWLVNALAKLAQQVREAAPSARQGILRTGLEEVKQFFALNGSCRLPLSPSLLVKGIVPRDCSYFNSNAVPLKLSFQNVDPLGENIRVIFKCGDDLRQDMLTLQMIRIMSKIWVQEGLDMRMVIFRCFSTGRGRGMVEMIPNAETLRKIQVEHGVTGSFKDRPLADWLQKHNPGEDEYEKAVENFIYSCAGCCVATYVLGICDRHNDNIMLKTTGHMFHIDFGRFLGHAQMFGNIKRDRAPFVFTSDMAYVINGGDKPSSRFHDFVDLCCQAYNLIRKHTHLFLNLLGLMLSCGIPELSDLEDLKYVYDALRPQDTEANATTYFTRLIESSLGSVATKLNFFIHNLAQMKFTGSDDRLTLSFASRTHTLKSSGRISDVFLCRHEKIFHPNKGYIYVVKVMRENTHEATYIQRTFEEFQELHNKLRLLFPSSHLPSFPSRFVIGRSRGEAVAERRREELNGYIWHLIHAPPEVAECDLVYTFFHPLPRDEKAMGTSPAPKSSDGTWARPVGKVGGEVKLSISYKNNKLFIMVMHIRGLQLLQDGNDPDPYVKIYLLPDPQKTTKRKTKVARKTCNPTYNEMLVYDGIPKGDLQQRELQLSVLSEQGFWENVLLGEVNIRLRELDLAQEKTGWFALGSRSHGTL
The target of assay [2] is PI3Kβ (Homo sapiens, UniProt P42338). The following applies: literature value; read-out: IC50 for other PI3Ks: PI3Kβ; cited from earlier work.
Assay [3] has as its system 395 kinases. Nature of the assay: KINOMEscan competitive binding profiling assay of 395 kinases (Ambit Biosciences). The note with it: single concentration 10 μM. The source says: Initially, 3-{[(3S)-4-(6,6-dimethyl-4-oxo-4,5,6,7-tetrahydro[1,3]thiazolo[5,4-c]pyridin-2-yl)morpholin-3-yl]methyl}-N,N,1-trimethyl-1H-indole-5-carboxamide (referred as Test Compound here in Example 2) was screened against kinase targets representing diverse protein kinase family members for competitive binding using a commercially available profiling assay of 395 kinases (Ambit Biosciences, KINOMEscan), and the compound was found most likely to inhibit the kinase activity of PI3Ks compared to other kinases.

Assay [4] addresses PIK3C2A (PI3K-C2 alpha) (Homo sapiens, UniProt O00443). Nature of the assay: SelectScreen Adapta universal kinase assay, PIK3C2A. It counts as biochemical. The following applies: [ATP] 10 uM; for inhibition at 0.00101 µM / inhibition at 0.00303 µM / inhibition at 0.0091 µM / inhibition at 0.0273 µM / inhibition at 0.082 µM / inhibition at 0.247 µM / inhibition at 0.741 µM / inhibition at 2.222 µM / inhibition at 6.667 µM / inhibition at 20 µM: PIK3C2A; for inhibition at 0.00101 µM: Test Compound 1.01 nM; for inhibition at 0.00303 µM: Test Compound 3.03 nM; for inhibition at 0.0091 µM: Test Compound 9.1 nM; for inhibition at 0.0273 µM: Test Compound 27.3 nM; for inhibition at 0.082 µM: Test Compound 82 nM; for inhibition at 0.247 µM: Test Compound 247 nM; for inhibition at 0.741 µM: Test Compound 741 nM; for inhibition at 2.222 µM: Test Compound 2222 nM; for inhibition at 6.667 µM: Test Compound 6667 nM; for inhibition at 20 µM: Test Compound 20000 nM. As to the method:
(§1) Kinase activities of PIK3C2B (and PIK3C2A for comparison) were obtained using the SelectScreen™ Profiling Service (Invitrogen) based on Adapta™ universal kinase assay protocol and conditions (Invitrogen Corporation, Cat. No. PV5099).
(§2) Adapta™ universal kinase assay: The assay itself can be divided into two phases: a kinase reaction phase, and an ADP detection phase. In the kinase reaction phase, all components required for the kinase reaction are added to the well, and the reaction is allowed to incubate for 60 minutes. After the reaction, a detection solution consisting of a europium labeled anti-ADP antibody, an Alexa Fluor™ 647 labeled ADP tracer, and EDTA (to stop the kinase reaction) is added to the assay well. ADP formed by the kinase reaction (in the absence of an inhibitor) displaces the Alexa Fluor® 647 labeled ADP tracer from the antibody, resulting in a decrease in the TR-FRET signal. In the presence of an inhibitor, the amount of ADP formed by the kinase reaction is reduced, and the resulting intact antibody-tracer interaction results in a high TR-FRET signal. ADP formation is determined by calculating the emission ratio from the assay well.
(§3) The emission ratio is calculated by dividing the intensity of the tracer (acceptor) emission by the intensity of the Eu (donor) emission at 615 nm as shown in the equation below. Emission Ratio=AlexaFluor™647 Emission (665 nm)/Europium Emission (615 nm).
(§4) The Test Compound was screened in 1% DMSO (final solution). For 10-point titrations, 3-fold serial dilutions were conducted from the starting concentrations of 20,000 nM for PIK3C2A and 1,000 nM for PIK3C2B.
For PIK3C2A (PI3K-C2 alpha), the 2×PIK3C2A (PI3K-C2 alpha)/PI mixture was prepared in a Kinase Buffer including […] pH 7.5, 200 mM NaCl, 0.06% CHAPS, 6 mM MgCl2, 2 mM EGTA. The final 10 μL Kinase Reaction has 8 ng PIK3C2A (PI3K-C2 alpha) and 100 μM PI in 57.5 mM HEPES pH 7.5, 100 mM NaCl, 0.03% CHAPS, 3 mM MgCl2, 1 mM EGTA. After the 1 hour Kinase Reaction incubation, 5 μL of Detection Mix was added.
(§5) All ATP Solutions were diluted to a 4× working concentration in water. ATP Km (apparent) was previously determined using a radiometric assay except when no substrate is available in which case an Adapta™ assay was conducted.
(§6) The Detection Mix was prepared in TR-FRET Dilution Buffer. The Detection mix consists of EDTA (30 mM), Eu-anti-ADP antibody (30 nM) and ADP tracer. The detection mix contains the EC60 concentration of tracer for 5-100 μM ATP.
(§7) Adapta™ assay protocol: 2.5 μL 4× Test Compound or 100 nL 100× plus 2.4 μL kinase buffer was dispensed onto white 384-well small volume polystyrene plate (Corning, Cat. No. 3674). Then 2.5 μL of 4×ATP Solution followed by 5 μL of 2× Substrate/Kinase Mixture were added. The final 10 μL Kinase Reaction has 8 ng PIK3C2B (PI3K-C2 beta) and 100 μM PI in 57.5 mM HEPES pH 7.5, 100 mM NaCl, 0.03% CHAPS, 3 mM MgCl2, 1 mM EGTA After 30 seconds plate shake and 2-minutes centrifugation at 1000×g for 2 minutes, Kinase Reaction incubation was performed at room temperature for 60 minutes.
(§8) After the Kinase Reaction incubation, 5 μL of Detection Mix was added. After 30 seconds plate shake and 2-minutes centrifugation at 1000×g for 2 minutes, Detection Mix equilibration incubation was performed at room temperature for 60 minutes.
(§9) Adapta™ data analysis: The fluorescent data obtained was analyzed using a data fitting program, XLfit (ID Business Solutions, Guildford, UK). IC50 values were derived by fitting a sigmoidal dose-response curve to a plot of assay readout over inhibitor concentration.

Assay [5] has as its target PIK3C2B (PI3K-C2 beta) (Homo sapiens, UniProt O00750). Description: SelectScreen Adapta universal kinase assay, PIK3C2B. It counts as biochemical. The following applies: for inhibition at 51 pM / inhibition at 0.000153 µM / inhibition at 0.00046 µM / inhibition at 0.00137 µM / inhibition at 0.0041 µM / inhibition at 0.0123 µM / inhibition at 0.037 µM / inhibition at 0.111 µM / inhibition at 0.333 µM / inhibition at 1 µM: PIK3C2B; for inhibition at 51 pM: Test Compound 0.051 nM; for inhibition at 0.000153 µM: Test Compound 0.153 nM; for inhibition at 0.00046 µM: Test Compound 0.46 nM; for inhibition at 0.00137 µM: Test Compound 1.37 nM; for inhibition at 0.0041 µM: Test Compound 4.1 nM; for inhibition at 0.0123 µM: Test Compound 12.3 nM; for inhibition at 0.037 µM: Test Compound 37 nM; for inhibition at 0.111 µM: Test Compound 111 nM; for inhibition at 0.333 µM: Test Compound 333 nM; for inhibition at 1 µM: Test Compound 1000 nM. How it is done:
as §1, §2, §3, §4
For PIK3C2B (PI3K-C2 beta), the 2×PIK3C2B (PI3K-C2 beta)/PI mixture was prepared in 100 mM HEPES pH 7.5, 200 mM NaCl, 0.06% CHAPS, 6 mM MgCl2, 2 mM EGTA. The final 10 μL Kinase Reaction has 8 ng PIK3C2B (PI3K-C2 beta) and 100 μM PI in 57.5 mM HEPES pH 7.5, 100 mM NaCl, 0.03% CHAPS, 3 mM MgCl2, 1 mM EGTA. After the 1 hour Kinase Reaction incubation, 5 μL of Detection Mix was added.
as §5, §6, §7, §8, §9

Where [6] appears, read: [ATP] 10 uM, read-out: % Inhibition point 1.
[7] abbreviates: [ATP] 10 uM, read-out: % Inhibition point 2.

Chain of PIK3C2A (PI3K-C2 alpha) (O00443 whole entry): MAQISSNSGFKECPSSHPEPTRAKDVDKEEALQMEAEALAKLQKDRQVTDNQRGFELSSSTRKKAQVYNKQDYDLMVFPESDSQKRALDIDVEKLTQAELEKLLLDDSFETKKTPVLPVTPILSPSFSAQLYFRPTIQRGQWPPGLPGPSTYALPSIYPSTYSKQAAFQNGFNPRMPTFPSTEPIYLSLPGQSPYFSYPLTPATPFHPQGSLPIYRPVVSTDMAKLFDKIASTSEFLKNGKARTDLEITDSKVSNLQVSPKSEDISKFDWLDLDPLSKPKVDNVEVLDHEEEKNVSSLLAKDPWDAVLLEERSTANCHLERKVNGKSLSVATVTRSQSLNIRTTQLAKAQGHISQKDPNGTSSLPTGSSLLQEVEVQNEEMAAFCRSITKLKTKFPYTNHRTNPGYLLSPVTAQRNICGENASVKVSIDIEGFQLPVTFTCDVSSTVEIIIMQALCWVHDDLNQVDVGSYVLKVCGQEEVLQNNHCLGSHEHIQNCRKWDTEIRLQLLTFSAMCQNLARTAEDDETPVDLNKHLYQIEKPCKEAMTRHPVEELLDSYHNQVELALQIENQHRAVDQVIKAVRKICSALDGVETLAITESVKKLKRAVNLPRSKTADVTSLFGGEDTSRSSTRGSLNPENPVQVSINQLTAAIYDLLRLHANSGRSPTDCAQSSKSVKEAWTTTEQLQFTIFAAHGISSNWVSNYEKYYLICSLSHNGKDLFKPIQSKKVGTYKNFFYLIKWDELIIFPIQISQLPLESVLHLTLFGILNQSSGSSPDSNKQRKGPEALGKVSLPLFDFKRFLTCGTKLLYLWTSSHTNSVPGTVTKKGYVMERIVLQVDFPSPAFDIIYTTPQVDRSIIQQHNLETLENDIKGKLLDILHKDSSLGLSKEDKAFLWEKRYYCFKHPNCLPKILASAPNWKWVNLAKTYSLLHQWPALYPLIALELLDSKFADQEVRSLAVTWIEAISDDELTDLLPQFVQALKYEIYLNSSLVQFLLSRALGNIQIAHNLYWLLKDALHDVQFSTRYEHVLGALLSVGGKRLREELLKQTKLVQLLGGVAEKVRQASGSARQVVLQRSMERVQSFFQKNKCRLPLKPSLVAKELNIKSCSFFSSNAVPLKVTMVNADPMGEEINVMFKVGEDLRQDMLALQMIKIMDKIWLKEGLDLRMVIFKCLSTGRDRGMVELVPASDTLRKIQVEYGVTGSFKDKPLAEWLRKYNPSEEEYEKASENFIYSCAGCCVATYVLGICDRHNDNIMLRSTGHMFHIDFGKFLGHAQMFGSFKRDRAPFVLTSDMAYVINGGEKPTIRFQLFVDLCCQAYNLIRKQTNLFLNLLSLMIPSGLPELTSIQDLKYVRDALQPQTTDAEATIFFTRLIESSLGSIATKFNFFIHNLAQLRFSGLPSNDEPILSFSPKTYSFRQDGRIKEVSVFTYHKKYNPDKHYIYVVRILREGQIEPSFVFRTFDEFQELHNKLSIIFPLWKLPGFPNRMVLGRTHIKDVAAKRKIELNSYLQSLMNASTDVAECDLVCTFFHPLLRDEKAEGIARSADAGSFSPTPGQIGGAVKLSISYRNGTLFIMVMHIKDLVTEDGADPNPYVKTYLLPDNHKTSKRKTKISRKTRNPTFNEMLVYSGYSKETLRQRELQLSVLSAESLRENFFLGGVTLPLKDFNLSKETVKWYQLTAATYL
Chain of PIK3C2B (PI3K-C2 beta) (O00750 whole entry): as the sequence (O00750 whole entry) above

`CC[C@H](Nc1ncnc2[nH]cnc12)c1nc2cccc(F)c2c(=O)n1-c1ccccc1`: the IC50 in assay [1] was 1 µM.

For `Cc1c(Cn2c(C)nc(=O)c3sc(N4CCOCC4)nc32)cccc1C(F)(F)F`, the “selectivity in favor of PI3Kβ (Class I)” value in assay [1] (PI3Kβ over PIK3C2B) is reported as 166-fold selectivity in favor of PI3Kβ (Class I) (Lin et al. ACS Med. Chem. Lett. 2012, 3, 524-529). The results for the half-inhibitory concentration (IC50) in assay [1] (literature value) and in assay [2] were 1 µM and 0.006 µM, respectively.

As to `CN(C)C(=O)c1ccc2c(c1)c(C[C@H]1COCCN1c1nc3c(s1)C(=O)NC(C)(C)C3)cn2C` [Test Compound, 3-{[(3S)-4-(6,6-dimethyl-4-oxo-4,5,6,7-tetrahydro[1,3]thiazolo[5,4-c]pyridin-2-yl)morpholin-3-yl]methyl}-N,N,1-trimethyl-1H-indole-5-carboxamide], the “hits in kinase binding screen” value in assay [3] is “no hits other than PI3Ks”. Moreover, in assay [4] (read-out: % Inhibition point 1), the inhibition at 0.00101 µM was 25%, the inhibition at 0.00303 µM is -24%, the inhibition at 0.0091 µM was -3% and the inhibition at 0.0273 µM was found to be 13%. Also, in assay [4] (read-out: % Inhibition point 1), the inhibition at 0.082 µM amounted to 0%, the inhibition at 0.247 µM is 15%, the inhibition at 0.741 µM turned out to be 17% and the inhibition at 2.222 µM was determined as 46%. Further, in assay [4] (read-out: % Inhibition point 1), the inhibition at 6.667 µM stood at 55% and the inhibition at 20 µM was found to be 81%. In assay [4] (read-out: % Inhibition point 2), the inhibition at 0.00101 µM is -12%, the inhibition at 0.00303 µM is 3%, the inhibition at 0.0091 µM was 16% and the inhibition at 0.0273 µM is -4%. In assay [4] (read-out: % Inhibition point 2), the inhibition at 0.082 µM came out at 11%, the inhibition at 0.247 µM turned out to be 6%, the inhibition at 0.741 µM came to 30% and the inhibition at 2.222 µM came to 36%. Further, in assay [4] (read-out: % Inhibition point 2), the inhibition at 6.667 µM is 46% and the inhibition at 20 µM was 78%. Besides, half-maximal inhibition in assay [4] (IC50) was put at 4.3 µM. For the same molecule, in assay [5] (PIK3C2B vs PIK3C2A IC50), the “selectivity over C2A (Class II isoform)” value is 449-fold selectivity over. Further, in assay [5] (setting [6]), the inhibition at 51 pM is 16%, the inhibition at 0.000153 µM was -3%, the inhibition at 0.00046 µM was 10% and the inhibition at 0.00137 µM was 21%. Besides, in assay [5] (setting [6]), the inhibition at 0.0041 µM is 58%, the inhibition at 0.0123 µM was found to be 61%, the inhibition at 0.037 µM amounted to 74% and the inhibition at 0.111 µM worked out at 92%. In addition, in assay [5] (setting [6]), the inhibition at 0.333 µM came to 94% and the inhibition at 1 µM turned out to be 93%. For the same molecule, in assay [5] (setting [7]), the inhibition at 51 pM amounted to 17%, the inhibition at 0.000153 µM was 8%, the inhibition at 0.00046 µM amounted to 21% and the inhibition at 0.00137 µM was found to be 33%. In assay [5] (setting [7]), the inhibition at 0.0041 µM amounted to 27%, the inhibition at 0.0123 µM is 49%, the inhibition at 0.037 µM was 82% and the inhibition at 0.111 µM amounted to 90%. In addition, in assay [5] (setting [7]), the inhibition at 0.333 µM was 93% and the inhibition at 1 µM was 95%. This molecule also displayed an IC50 in assay [5] ([ATP] 10 uM) of 0.00957 µM.
